Measurements reported in US20230011869A1 (Hoffmann-La Roche Inc., priority 2018, published 2023).
Structures can show the parent of a compound that is named as a salt. Where two headings read alike, the source gives them in different places.

Tested on: Acinetobacter baumannii ATCC17978
Test: Antimicrobial susceptibility testing: 90% growth inhibitory concentration (IC90) determination, Iso-Sensitest broth
Type: cell-based
Method in brief: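 A. baumannii ATCC17978 grown in Iso-Sensitest broth across 10 compound concentrations at 35±2 °C.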

[1] = 90% growth inhibitory concentration, Acinetobacter baumannii ATCC17978, Iso-Sensitest broth, OD 600 nm over 16 h, read-out: ATCC17978 IC90
[2] = Acinetobacter baumannii, ATCC17978, 16 h, read-out: ATCC17978 IC90, 90% growth inhibitory concentration, Acinetobacter baumannii ATCC17978, Iso-Sensitest broth, OD 600 nm over 16 h

| IC90 [1] | Structure (SMILES) | IC90 [2] | other results |
| --- | --- | --- | --- |
| 2000 nM | Cc1cc(Nc2nccn3c(-c4ccc(OS(C)(=O)=O)c(F)c4F)cnc23)ccc1C(=O)N1CCN(C(=O)C2CCNCC2)CC1 [Example 446, [2,3-difluoro-4-[8-[3-methyl-4-[4-(piperidine-4-carbonyl)piperazine-1-carbonyl]anilino]imidazo[1,2-a]pyrazin-3-yl]phenyl] methanesulfonate] | – | – |
| – | Cc1cc(Nc2nccn3c(-c4ccc(OC(F)F)cc4)cnc23)ccc1C(=O)N1CCC(c2nccn2C)CC1 [Example 356, [4-[[3-[4-(difluoromethoxy)phenyl]imi-dazo[1,2-a]pyrazin-8-yl]amino]-2-methylphenyl]-[4-(1-methylimidazol-2-yl)piperidin-1-yl]methanone] | 300 nM | – |
| – | Cc1cc(Nc2nccn3c(-c4ccc(OC(F)F)cc4)cnc23)ccc1C(=O)N1CCC(C(=O)N2C[C@@H](O)[C@@H](O)[C@@H](O)C2)CC1 [Example 326, [4-[[3-[4-(difluoromethoxy)phenyl]imi-dazo[1,2-a]pyrazin-8-yl]amino]-2-methylphenyl]-[4-[rac-(3R,5S)-3,4,5-trihydroxypiperidine-1-carbonyl]piperidin-1-yl]methanone] | 360 nM | – |
| 93 nM | COc1ccc(-c2cnc3c(Nc4ccc(C(=O)N5CCN(C(=O)[C@@H]6CCNC6)CC5)c(C)c4)nccn23)c(F)c1F [Example 202, (R)-(4-(4-((3-(2,3-difluoro-4-methoxyphenyl)imidazo[1,2-a]pyrazin-8-yl)amino)-2-methylbenzoyl)piperazin-1-yl) (pyrrolidin-3-yl)methanone hydrochloride] | – | – |
| 1100 nM | COc1ccc(-c2cnc3c(Nc4ccc(C(=O)N5CCC(C(=O)N6CCNC(C(=O)O)C6)CC5)c(C)c4)nccn23)c(F)c1F (centres unmarked) [Example 266, 4-[1-[4-[[3-(2,3-difluoro-4-methoxyphenyl)imidazo[1,2-a]pyrazin-8-yl]amino]-2-methylbenzoyl]piperidine-4-carbonyl]piperazine-2-carboxylic acid] | – | – |
| – | Cc1cnn(CC2CCN(C(=O)c3ccc(Nc4nccn5c(-c6ccc(OC(F)F)cc6)cnc45)cc3C)CC2)c1 [Example 380, [4-[[3-[4-(difluoromethoxy)phenyl]imi-dazo[1,2-a]pyrazin-8-yl]amino]-2-methylphenyl]-[4-[(4-methylpyrazol-1-yl)methyl]piperidin-1-yl]methanone] | 2800 nM | – |
| 470 nM | Cc1cc(Nc2nccn3c(-c4ccc(OC(F)F)cc4)cnc23)ccc1C(=O)N1CCN(C(=O)NC2CNC2)CC1 [Example 169, N-(azetidin-3-yl)-4-[4-[[3-[4-(difluoromethoxy)phenyl]imidazo[1,2-a]pyrazin-8-yl]amino]-2-methyl-benzoyl]piperazine-1-carboxamide trifluoroacetate] | – | – |
| – | Cc1cc(Nc2nccn3c(-c4ccc(OC(F)F)cc4)cnc23)ccc1C(=O)N1CCN(C(=O)CN)CC1 [Example 37, 2-amino-1-(4-(4-((3-(4-(difluoromethoxy)phenyl)imidazo[1,2-a]pyrazin-8-yl)amino)-2-methylbenzoyl)piperazin-1-yl)ethanone hydrochloride] | – | IC90 (read-out: ATCC17978 IC90, 90% growth inhibitory concentration, Acinetobacter baumannii ATCC17978, Iso-Sensitest broth, OD 600 nm over 16 h, hydrochloride): 180 nM |
| 1200 nM | COc1ccc(-c2cnc3c(Nc4ccc(C(=O)N5CCN(C6CC6)CC5)c(C)c4)nccn23)cc1F [Example 426, (4-cyclopropylpiperazin-1-yl)-[4-[[3-(3-fluoro-4-methoxyphenyl)imidazo[1,2-a]pyrazin-8-yl]amino]-2-methylphenyl]methanone] | – | – |
| 1300 nM | Cc1cc(Nc2nccn3c(-c4ccc(Cl)cc4Cl)cnc23)ccc1C(=O)N1CCC(CN)CC1 [Example 108, (4-(aminomethyl)piperidin-1-yl)(4-((3-(2,4-dichlorophenyl)imidazo[1,2-a]pyrazin-8-yl)amino)-2-methylphenyl)methanone] | – | – |
| – | Cc1cc(Nc2nccn3c(-c4ccc(OC(F)F)cc4)cnc23)ccc1C(=O)N1CCN(C(=O)[C@@H](N)C(C)C)CC1 [Example 317, (2S)-2-amino-1-[4-[4-[[3-[4-(difluoromethoxy)phenyl]imi-dazo[1,2-a]pyrazin-8-yl]amino]-2-methylbenzyol]piperazin-1-yl]-3-methylbutan-1-one; hydrochloride] | 240 nM | – |
| 760 nM | COc1ccc(-c2cnc3c(Nc4ccc(C(=O)N5CCN(Cc6cnc[nH]6)CC5)c(C)c4)nccn23)cc1F [Example 256, [4-[[3-(3-fluoro-4-methoxyphenyl)imidazo[1,2-a]pyrazin-8-yl]amino]-2-methylphenyl]-[4-(1H-imidazol-5-ylmethyl)piperazin-1-yl]methanone] | – | – |
| 270 nM | COc1ccc(-c2cnc3c(Nc4ccc(C(=O)N5CCN(C(=O)CN(C)C)CC5)c(C)c4)nccn23)cc1F [Example 64, 2-(dimethylamino)-1-(4-(4-((3-(3-fluoro-4-methoxyphenyl)imidazo[1,2-a]pyrazin-8-yl)amino)-2-methylbenzoyl)piperazin-1-yl)ethanone] | – | – |
| 170 nM | Cc1cc(Nc2nccn3c(-c4ccc(OCC#N)c(F)c4Cl)cnc23)ccc1C(=O)N1CCC(C(=O)N2CCNC[C@@H]2CO)CC1 [Example 207, 2-[3-chloro-2-fluoro-4-[8-[4-[4-[(2R)-2-(hydroxymethyl)piperazine-1-carbonyl]piperidine-1-carbonyl]-3-methyl-anilino]imidazo[1,2-a]pyrazin-3-yl]phenoxy] acetonitrile] | – | – |
| 670 nM | COc1ccc(-c2cnc3c(Nc4ccc(C(=O)N5CCN(CC(C)O)CC5)c(C)c4)nccn23)cc1F (centres unmarked) [Example 410, [4-[[3-(3-fluoro-4-methoxyphenyl)imidazo[1,2-a]pyrazin-8-yl]amino]-2-methylphenyl]-[4-(2-hydroxypropyl)piperazin-1-yl]methanone] | – | – |
| – | Cc1cc(Nc2nccn3c(-c4ccc(OC(F)F)cc4)cnc23)ccc1C(=O)N1CCN(C(=O)C(C)(C)N)CC1 [Example 339, 2-amino-1-[4-[4-[[3-[4-(difluoromethoxy)phenyl]imi-dazo[1,2-a]pyrazin-8-yl]amino]-2-methylbenzoyl]piperazin-1-yl]-2-methylpropan-1-one; hydrochloride] | 500 nM | – |
| – | Cc1cc(Nc2nccn3c(-c4ccc(OC(F)F)cc4)cnc23)ccc1C(=O)N1CCN(C(=O)C2(C)CCNCC2)CC1 [Example 506, [4-[[3-[4-(difluoromethoxy)phenyl]imi-dazo[1,2-a]pyrazin-8-yl]amino]-2-methylphenyl]-[4-(4-methylpiperidine-4-carbonyl)piperazin-1-yl]methanone; hydrochloride] | 510 nM | – |
| 2200 nM | CNCCNC(=O)[C@@H]1CCN(C(=O)c2ccc(Nc3nccn4c(-c5ccc(OC)c(F)c5)cnc34)cc2C)C[C@H]1O (racemic) [Example 449, rac-(3R,4S)-1-[4-[[3-(3-fluoro-4-methoxyphenyl)imidazo[1,2-a]pyrazin-8-yl]amino]-2-methylbenozyl]-3-hydroxy-N-[2-(methylamino)ethyl]piperidin-4-carboxamide; 2,2,2-trifluoroacetic acid] | – | – |
| 670 nM | Cc1cc(Nc2nccn3c(-c4ccc(OC(F)F)cc4)cnc23)ccc1C(=O)N1CCN(CCN)CC1 [Example 24, [4-(2-aminoethyl)piperazin-1-yl]-[4-[[3-[4-(difluoromethoxy)phenyl]imidazo[1,2-a]pyrazin-8-yl]amino]-2-methyl-phenyl]methanone] | – | – |
| 1700 nM | COc1ccc(-c2cnc3c(Nc4ccc(C(=O)N5CCC(C(=O)O)CC5)c(C)c4)nccn23)cc1F [Example 2, 1-(4-((3-(3-fluoro-4-methoxyphenyl)imidazo[1,2-a]pyrazin-8-yl)amino)-2-methylbenzoyl)piperidine-4-carboxylic acid] | – | – |
